Experiment: Urine drug testing (UDT): drug concentration of the primary metabolite (parent drug) in patient urine, e.g. LC/MSMS
Protocol: Non-limiting examples for determining the amount of a drug in fluid of a subject include fluorescence polarization immunoassay (“FPIA,” Abbott Diagnostics), mass spectrometry (MS), gas chromatography-mass spectrometry (GC-MS-MS), liquid chromatography-mass spectrometry (LC-MS-MS), liquid chromatography—exact mass mass spectrometry (LC/QTOF) and the like. […] In one embodiment, a raw level, amount, or concentration of a drug in urine of a subject is measured and reported as a ratio, percent, or in relationship to the amount of fluid. The amount of fluid may be expressed as a unit volume, for example, in L, mL, μL, pL, ounce, etc. In one embodiment, the raw amount of a drug in Urine of a subject may be expressed as an absolute level or value, for example, in g, mg, μg, ng, pg, etc.
Then urine from the subject is tested. […] These values are within normal ranges so the data were processed.
Of the patients considered in this sample 70% were females and 30% were males.

With Cc1nnc2n1-c1ccc(Cl)cc1C(c1ccccc1)=NC2 [alprazolam] the “average urine drug concentration” value (Example 7, fifty randomly selected alprazolam patients, average daily dosage 2 mg) was 155 ng/m L and the “average urine drug concentration” value (alprazolam model population, approximately 280,000 patient results, average daily dosage 3 mg) was 375 ng/mL.
In the case of COc1ccc2c3c1O[C@H]1C(=O)CC[C@@]4(O)[C@@H](C2)N(C)CC[C@]314 [oxycodone], the “average urine drug concentration” value (oxycodone model population, approximately 47,000 patient results, average daily dosage 36 mg) is reported as 2120 ng/m L.
In the case of COc1ccc2c3c1O[C@H]1C(=O)CC[C@H]4[C@@H](C2)N(C)CC[C@]314 [hydrocodone], the “average urine drug concentration” value (hydrocodone model population, approximately 100,000 patient results, average daily dosage 30 mg) is reported as 1784 ng/m L.
With O=C1Nc2ccc(Cl)cc2C(c2ccccc2)=NC1O (stereo not drawn) [oxazepam] the “average urine drug concentration” value (Example 8, fifty patients prescribed diazepam or temazepam (oxazepam as metabolite), average daily dosage 17 mg) was 1096 ng/m L and the “average oxazepam urine drug concentration” value (oxazepam model population, approximately 207,000 patient results, prescribed diazepam and temazepam, average daily dosage 23 mg) was 1819 ng/m L.

Reference: patent US20160300038A1, “METHODS OF N[…] DRUG CONCENTRATIONS IN URINE USING PATIENT […] DATA AND TESTING FOR POTENTIAL NON-[…] A CHRONIC DRUG TREATMENT REGIMEN” (Ameritox, Ltd., priority 2015, published 2016)
